Measurements as given in US11850213B2, “Ophthalmic compositions of rifamycins and uses thereof” (AMD THERAPEUTICS LLC, priority 2014, dated 2023).
In brackets after ≈: the same amount, converted by molar mass. Read-outs that look alike come from different tables or passages of the source.

Columns and labels:
[1] = Rabbit, 0.5% 50 microL, 250 micro g, Sigurdsson et al (2007); cited from earlier work
[2] = Solubility of AMD101 in H2O; format: physicochemical; details: water
Experimental: In H2O, the AMD101 can dissolve at approximately 1.4 mg/ml only. However, the concentration was increased as provided herein employing suitable excipients. Those formulations are stable for weeks.

[3] = Retina exposure of rifampicin after topical eye drops (3 or 10 drops), LC/MS; format: in vivo, Sprague-Dawley rats; details: Rat, 0.25%
Experimental: The remaining two rats received the same applications, but 10 drops, to each eye under isoflurane sedation. A single drop contained 5 micro L of the formulation, and applications of each drop had 30 min interval. After the eye drop application, retinas were extracted under a dissection microscope. In addition, “Non-treatment” negative control was taken, and retina was extracted from two rats without any treatment. Retinas were placed in a 1.5 ml microcentrifuge tubes (1 retina/tube), and they were extensively washed by DPBS. After the washing procedure, retina tissue in a microcentrifuge tube was frozen in dry ice, and it was stored for quantification by LC/MS analysis.

[4] = Retina exposure of rifampicin after subcutaneous injection, LC/MS; format: in vivo, Sprague-Dawley rats; details: male, Sprague-Dawley, rat, SC injection 20 mg/Kg (Example 6A), n = 4
Experimental: At time points of 1 hr, 3 hr, and 7 hr after the SC injection, retina tissues were extracted from the rats under a dissection microscope. In addition, “Non-treatment” negative control was taken, and retina was extracted from two rats without any treatment. Retinas were placed in a 1.5 ml microcentrifuge tubes (1 retina/tube), and they were extensively washed by DPBS. After the washing procedure, retina tissue in a microcentrifuge tube was frozen in dry ice, and it was stored for quantification by LC/MS analysis. […] Amounts detected in retina by the SC injection were equivalent to those delivered by the eye drop application (See Table 3).

[5] = PK study, retina exposure after 0.25% rifampicin eye drop, LC/MS; format: in vivo, Sprague-Dawley rats; details: male, Sprague-Dawley, 37.5 micro gram, rat
Experimental: 15 microL of an eye drop formulation which is presented as Example 1A listed in Table 1 was used to dose the compound to a single eye of a rat. […] At time points of 1 hr, 3 hr, and 7 hr after the eye drop application, retina tissues were extracted from the rats under a dissection microscope. In addition, “Non-treatment” negative control was taken, and retina was extracted from a single rat without any treatment. Retinas were placed in a 1.5 ml microcentrifuge tubes (1 retina/tube), and they were extensively washed by DPBS. After the washing procedure, retina tissue in a microcentrifuge tube was frozen in dry ice, and it was stored for quantification by LC/MS analysis.

[6] = Dose-response study, retina exposure after 0.25% and 0.5% rifampicin eye drops, LC/MS; format: in vivo, Sprague-Dawley rats; details: male, Sprague-Dawley, rat, topical
Experimental: 15 microL of eye drop formulations which are presented as Example 1A and 6A listed in Table 1 and Table 2, respectively, were used to dose the compound to a single eye of a rat. […] In 1 hr after the eye drop application, retina tissues were extracted from the rats under a dissection microscope. In addition, “Non-treatment” negative control was taken, and retina was extracted from a single rat without any treatment. Retinas were placed in a 1.5 ml microcentrifuge tubes (1 retina/tube), and they were extensively washed by DPBS. After the washing procedure, retina tissue in a microcentrifuge tube was frozen in dry ice, and it was stored for quantification by LC/MS analysis.

solubility [2] | Drug amount detected in retina ([3]; 3 drops (15 microL, 37.5 micro g)) | Drug amount detected in retina ([3]; 10 drops (50 microL, 125 micro g)) | concentration at 1 hr ([4]; 1 hr) | concentration at 3 hr ([4]; 3 hr) | concentration at 7 hr ([4]; 7 hr) | Tmax ([5]; topical or ocular, 0.25% eye drop 15 microL) | concentration at 1 hr ([5]; topical, 0.25% eye drop 15 microL (Example 1A), 1 hr, n = 4) | concentration at 3 hr ([5]; topical, 0.25% eye drop 15 microL (Example 1A), 3 hr, n = 4) | concentration at 7 hr ([5]; topical, 0.25% eye drop 15 microL (Example 1A), 7 hr, n = 4) | concentration at 1 hr ([6]; 37.5 micro gram) | concentration at 1 hr ([6]; 75 micro gram) | Structure (SMILES) | Drug amount detected in retina [1]
 |  |  |  |  |  |  |  |  |  |  |  | C[C@@H]1C[C@H]2[C@@H]3CCC4=CC(=O)C=C[C@]4(C)[C@@]3(F)[C@@H](O)C[C@]2(C)[C@@]1(O)C(=O)CO [Dexamethasone] | ~33 ng/g retina ng/g retina tissue
~1400 µg/mL (≈ 1700 µM) | ~1,288 ng/g retina ng/g retina tissue | ~2,939 ng/g retina ng/g retina tissue | 2660 ng/g | 3860 ng/g | 2520 ng/g | ~1 h | 1580 ng/g | 1150 ng/g | 104 ng/g | 1580 ng/g | 6070 ng/g | CO[C@H]1/C=C/O[C@@]2(C)Oc3c(C)c(O)c4c(O)c(c(/C=N/N5CCN(C)CC5)c(O)c4c3C2=O)NC(=O)/C(C)=C\C=C\[C@H](C)[C@H](O)[C@@H](C)[C@@H](O)[C@@H](C)[C@H](OC(C)=O)[C@@H]1C [Rifampicin] | 
